In article PMC10825133, “Repurposing proteasome inhibitors for improved treatment of triple-negative breast cancer” (Cell Death Discovery, 2024):
Like-named read-outs stand apart in the source and are kept apart here.

Columns and labels:
Experiment in all cases: Resazurin-based cell viability assay, monotherapy drug screen
[1] = test system: MDA-MB-453 cells; design: species or system human; AUC: scale not given here; details: for IC50: Homo sapiens; for AUC: area under the dose response curve, 24 h
Experimental: (§1) Eighteen pharmaceutical compounds were purchased from Selleckchem. […] The stock solutions were stored at -80°C. […] New drug plates were prepared for each drug screen.
(§2) To determine the optimal seeding density and ensure that the cells were in the exponential phase during the duration of the experiment (approx. 52h), each cell line (BT-549, CAL-148, HCC1806, HCC38, HCC70, MCF-10A, MCF-7, MDA-MB-436, MDA-MB-453, and MDA-MB-468) was seeded at different concentrations (1000 to 16000 cells) per 96-well, as previously described. Cell viability was measured daily (day 0 [plating day] to day 4) using 0.2 mg/ml resazurin solution prepared from resazurin sodium salt (Fisher Scientific) dissolved in sterile 1xPBS (ThermoFisher Scientific). Before use, the resazurin solution was brought to RT before 10 µl (10% of cell medium volume) was added to each 96-well and incubated for 4h at 37°C. The absorbance was measured with a 560 nm excitation filter and a 615 nm emission filter in a Wallac 1420 VICTOR2™ microplate reader (Perkin Elmer). The slope of the curve was used to determine the optimal seeding density, i.e., the highest seeding density with linear growth between days 1 and 3.

[2] = test system: MDA-MB-468 cells; design: species or system human; AUC: scale not given here; details: for IC50: Homo sapiens; for AUC: area under the dose response curve, 24 h
Experimental: as §1, §2

[3] = test system: BT-549 cells; design: species or system human; AUC: scale not given here; details: for AUC: area under the dose response curve, 24 h; for GRmax: drug efficacy at highest tested dose (<0 cytotoxic, 0 cytostatic, >0 partial growth inhibition); for IC50: Homo sapiens
Experimental: as §1, §2

[4] = test system: HCC70 cells; design: species or system human; AUC: scale not given here; details: for AUC: area under the dose response curve, 24 h; for GRmax: drug efficacy at highest tested dose (<0 cytotoxic, 0 cytostatic, >0 partial growth inhibition); for IC50: Homo sapiens
Experimental: as §1, §2

[5] = test system: HCC38 cells; design: species or system human; AUC: scale not given here; details: for AUC: area under the dose response curve, 24 h; for GRmax: drug efficacy at highest tested dose (<0 cytotoxic, 0 cytostatic, >0 partial growth inhibition); for IC50: Homo sapiens
Experimental: as §1, §2

[6] = test system: MCF-10A cells; design: species or system human; AUC: scale not given here; details: for IC50: Homo sapiens; for AUC: area under the dose response curve
Experimental: as §1, §2

[7] = test system: MDA-MB-436 cells; design: species or system human; AUC: scale not given here; details: for IC50: Homo sapiens; for AUC: area under the dose response curve, 24 h; for GRmax: drug efficacy at highest tested dose (<0 cytotoxic, 0 cytostatic, >0 partial growth inhibition)
Experimental: as §1, §2

[8] = test system: HCC1806 cells; design: species or system human; AUC: scale not given here; details: for AUC: area under the dose response curve, 24 h; for GRmax: drug efficacy at highest tested dose (<0 cytotoxic, 0 cytostatic, >0 partial growth inhibition); for IC50: Homo sapiens
Experimental: as §1, §2

[9] = test system: CAL-148 cells; design: species or system human; AUC: unit not given beside the values; details: for AUC: area under the dose response curve, 24 h; for GRmax: drug efficacy at highest tested dose (<0 cytotoxic, 0 cytostatic, >0 partial growth inhibition); for IC50: Homo sapiens
Experimental: Eighteen pharmaceutical compounds were purchased from Selleckchem (Supplementary Table 2). Stock solutions were prepared using dimethyl sulfoxide (DMSO; Merck), physiological saline (sodium chloride 0.9%) or Milli-Q water, and stored at −80 °C. […] Matched concentration solvent vehicle controls were used for each drug concentration. The drug screens were performed in triplicate and repeated three (monotherapy) or two (combination therapy) times (Fig. 7).
The optimal seeding density per 96-well was determined for each cell line as previously described. The cells were seeded at a density of 4.0 × 10^3 to 7.5 × 10^3 (cell type dependent) in 96-well clear, flat-bottom microplates (Corning Life Sciences, Sigma-Aldrich) in 100 µl complete culture medium (Supplementary Table 1) and cultured for 24 h. Cell viability was determined using the resazurin assay in untreated cells at the time of plating (t = 0) and treated cells after 24 h drug treatment (Fig. 7). Percentage cell viability was calculated as 100% × (absorbance of treated cells – absorbance of background controls) / (absorbance of matched solvent vehicle controls – absorbance of background controls). The area under the curve (AUC), half-maximal inhibitory concentration (IC50), drug potency (GR50), and drug efficacy (GRmax) were determined for each compound using the GRmetrics (version 1.20.0) package in R. The monotherapy data were evaluated with the IDACombo (version 1.0.2) package in R to predict potential drug combinations (Table 1). SynergyFinder (version 3.2.10) package in R was used to identify synergistic drug combinations.
Eighteen pharmaceutical compounds were purchased from Selleckchem. […] The solubility of the compound was enhanced by pre-heating the solvent (lukewarm), if necessary. […] The stock solutions were stored at -80°C. […] Matched concentration solvent vehicle controls were used for each drug concentration. The drug screens were performed in triplicate and repeated three times for the monotherapies and twice for the combination treatments. The drug(s) and corresponding controls were plated in 96-well PCR plates (VWR) and stored at -20°C (Fig. 6). The drug plates were thawed, centrifuged (3000 rpm for 30s), and acclimatized to RT before the drugs were added to the cells. New drug plates were prepared for each drug screen.
Cell viability was measured daily (day 0 [plating day] to day 4) using 0.2 mg/ml resazurin solution prepared from resazurin sodium salt (Fisher Scientific) dissolved in sterile 1xPBS (ThermoFisher Scientific). Before use, the resazurin solution was brought to RT before 10 µl (10% of cell medium volume) was added to each 96-well and incubated for 4h at 37°C. […] The slope of the curve was used to determine the optimal seeding density, i.e., the highest seeding density with linear growth between days 1 and 3.
The cells were seeded at a density of 4.0x10^3 to 7.5x10^3 (cell type-dependent) in 96-well clear, flat-bottom microplates (Corning Life Sciences, Sigma-Aldrich) in 100 µl culture medium supplemented with 10% FBS and cultured for 24h. Cell viability was determined using the resazurin assay after 24h drug treatment (Fig. 6). Percentage cell viability was calculated as 100% × (absorbance of treated cells – absorbance of background controls) / (absorbance of matched solvent vehicle controls – absorbance of background controls). Normalized growth rate inhibition (GR) was assessed using the absorbance of untreated cells after the time of plating (t = 0). […] For combination treatment, the monotherapy data were evaluated with the IDACombo (version 1.0.2)[20] package in R to predict potential drug combinations (Table 1). SynergyFinder (version 3.2.10)[21] package in R was used to identify synergistic drug combinations.

Compound: CC(C)C[C@H](NC(=O)[C@H](CCc1ccccc1)NC(=O)CN1CCOCC1)C(=O)N[C@@H](Cc1ccccc1)C(=O)N[C@@H](CC(C)C)C(=O)[C@@]1(C)CO1 [Carfilzomib]
- IC50 ([1]; MDA-MB-453, growth rate inhibition concentration at GR(c) = 0.5, 24 h, read-out: GR50 (the source's name)): 0.22 µM
- AUC ([1]; MDA-MB-453): 0.77
- IC50 ([2]; MDA-MB-468, 24 h drug treatment, read-out: IC50): 0.46 µM
- IC50 ([2]; MDA-MB-468, growth rate inhibition concentration at GR(c) = 0.5, 24 h, read-out: GR50 (the source's name)): 0.11 µM
- AUC ([2]; MDA-MB-468): 0.65
- AUC ([3]; BT-549): 0.67
- GRmax ([3]; BT-549): 0.37
- IC50 ([3]; BT-549, 24 h drug treatment, read-out: IC50): 4.4 µM
- IC50 ([3]; BT-549, growth rate inhibition concentration at GR(c) = 0.5, 24 h, read-out: GR50 (the source's name)): 1 µM
- AUC ([4]; HCC70): 0.76
- GRmax ([4]; HCC70): −0.57
- IC50 ([4]; HCC70, 24 h drug treatment, read-out: IC50): 2.1 µM
- IC50 ([4]; HCC70, growth rate inhibition concentration at GR(c) = 0.5, 24 h, read-out: GR50 (the source's name)): 0.48 µM
- AUC ([5]; HCC38): 0.71
- GRmax ([5]; HCC38): −0.99
- IC50 ([5]; HCC38, 24 h drug treatment, read-out: IC50): 0.57 µM
- IC50 ([5]; HCC38, growth rate inhibition concentration at GR(c) = 0.5, 24 h, read-out: GR50 (the source's name)): 0.38 µM
- IC50 ([6]; 24 h drug treatment, read-out: IC50): 0.54 µM
- IC50 ([6]; growth rate inhibition concentration at GR(c) = 0.5, 24 h, read-out: GR50 (the source's name)): 0.11 µM
- AUC ([6]; 24 h): 0.66
- IC50 ([7]; MDA-MB-436, growth rate inhibition concentration at GR(c) = 0.5, 24 h, read-out: GR50 (the source's name)): 0.0018 µM
- AUC ([7]; MDA-MB-436): 0.73
- GRmax ([7]; MDA-MB-436): −0.89
- AUC ([8]; HCC1806): 0.73
- GRmax ([8]; HCC1806): 0.31
- IC50 ([8]; HCC1806, 24 h drug treatment, read-out: IC50): 1.7 µM
- IC50 ([8]; HCC1806, growth rate inhibition concentration at GR(c) = 0.5, 24 h, read-out: GR50 (the source's name)): 0.95 µM
- AUC ([9]; CAL-148): 0.84
- GRmax ([9]; CAL-148): −0.01
- IC50 ([9]; CAL-148, growth rate inhibition concentration at GR(c) = 0.5, 24 h, read-out: GR50 (the source's name)): 0.37 µM

Compound: CC1=C(O)C(=O)C=C2C1=CC=C1[C@@]2(C)CC[C@@]2(C)[C@@H]3C[C@](C)(C(=O)O)CC[C@]3(C)CC[C@]12C [Celastrol]
- IC50 ([1]; MDA-MB-453, 24 h): 3.7 µM
- IC50 ([1]; MDA-MB-453, 24 h, read-out: GR50 (µM)): 3.4 µM
- AUC ([1]; MDA-MB-453): 0.87
- IC50 ([2]; MDA-MB-468, 24 h): 1 µM
- IC50 ([2]; MDA-MB-468, 24 h, read-out: GR50 (µM)): 0.75 µM
- AUC ([2]; MDA-MB-468): 0.75
- AUC ([3]; BT-549): 0.82
- GRmax ([3]; BT-549): −0.51
- IC50 ([3]; BT-549, 24 h): 1.3 µM
- IC50 ([3]; BT-549, 24 h, read-out: GR50 (µM)): 1.5 µM
- AUC ([4]; HCC70): 0.82
- GRmax ([4]; HCC70): −0.98
- IC50 ([4]; HCC70, 24 h): 1.8 µM
- IC50 ([4]; HCC70, 24 h, read-out: GR50 (µM)): 1.2 µM
- AUC ([5]; HCC38): 0.79
- GRmax ([5]; HCC38): −0.96
- IC50 ([5]; HCC38, 24 h): 1.4 µM
- IC50 ([5]; HCC38, 24 h, read-out: GR50 (µM)): 1.2 µM
- IC50 ([6]; 24 h): 1.6 µM
- IC50 ([6]; 24 h, read-out: GR50 (µM)): 1.8 µM
- AUC ([6]; 24 h): 0.81
- IC50 ([7]; MDA-MB-436, 24 h): 3.2 µM
- IC50 ([7]; MDA-MB-436, 24 h, read-out: GR50 (µM)): 2.4 µM
- AUC ([7]; MDA-MB-436): 0.85
- GRmax ([7]; MDA-MB-436): −0.63
- AUC ([8]; HCC1806): 0.81
- GRmax ([8]; HCC1806): −0.82
- IC50 ([8]; HCC1806, 24 h): 2.1 µM
- IC50 ([8]; HCC1806, 24 h, read-out: GR50 (µM)): 3.4 µM
- AUC ([9]; CAL-148): 0.85
- GRmax ([9]; CAL-148): −0.84
- IC50 ([9]; CAL-148, 24 h): 3.7 µM
- IC50 ([9]; CAL-148, 24 h, read-out: GR50 (µM)): 3.1 µM
